The results in this text go back to article PMC5626944 (Frontiers in Pharmacology, 2017).

Holding throughout (assay): NovaScreen competition binding
What all share (conditions): 1 µM

One test deals with Adrenergic, Beta 2 (h). On the set-up: species or system human.
The next test concerns Opioid, Delta 2 (h). On the set-up: species or system human.
The subject of test [1] is T1, GABA A, BDZ, alpha 1 site.
T1 construct: PerkinElmer – Caliper Life Sciences (NovaScreen)

The test system of test [2] is Glutamate, AMPA Site (Ionotropic).

Consider `C1=C(/c2cncnc2)CCCNCC/1` [TC299423, (E)-5-(pyrimidin-5-yl)-1,2,3,4,7,8-hexahydroazocine], for which the Hit entry in the test on Adrenergic, Beta 2 (h) is listed as “FALSE”; in the test on Opioid, Delta 2 (h), “FALSE”; in test [1], “FALSE”; in test [2], “FALSE”. The Inhibition (commonly the change of the read-out against control, counted positive when it falls) with Adrenergic, Beta 2 (h) ([125]I-Iodo-cyanopindolol) was -8.25%; in the test on Opioid, Delta 2 (h) ([3H]-Naltrindole), -2.12%; in test [1] ([3H]Flunitrazepam), 11.84%; in test [2] ([3H]AMPA), -1.26%.
